Key:
[1] = SuFEx S-O bond formation: di-sulfonimidoyl fluoride (mixture of diastereomers) + diphenol (1:1), DBU 2.1 equiv, [1+1] macrocyclisation, one pot; details: the molecule shown is the open-chain precursor, MeCN, 20.0 mM, 50.0 °C
[2] = Enantiospecific SuFEx S-O bond formation: enantiopure di-sulfonimidoyl fluoride + sodium diphenolate (1:1), [1+1] macrocyclisation, one pot; details: the molecule shown is the open-chain precursor, MeCN, 12.5 mM, 60.0 °C, 6.0 h

With Cc1ccc(S(=O)(F)=NC(=O)c2ccc(C(=O)N=S(=O)(Oc3ccccc3CNCCNCc3ccccc3O)c3ccc(C)cc3)cc2)cc1 (stereo not shown) [3f] the ring closure, isolated yield ([1]; 22-membered ring, 3.0 h) was 87%.

Cc1ccc(S(=O)(F)=NC(=O)c2ccc(Oc3ccc(C(=O)N=S(=O)(Oc4ccc(OCCOc5ccc(O)cc5)cc4)c4ccc(C)cc4)cc3)cc2)cc1 (stereo not shown) [3l] gave a ring closure, isolated yield ([1]; 29-membered ring, 3.0 h) of 67%.

In the case of Cc1ccc(S(=O)(F)=NC(=O)c2ccc(C(=O)N=S(=O)(Oc3ccc(C(C)(C)c4cccc(C(C)(C)c5ccc(O)cc5)c4)cc3)c3ccc(C)cc3)cc2)cc1 (stereo not shown), the ring closure, isolated yield ([1]; 25-membered ring, 3.0 h) was 74%.

With Cc1ccc(S(=O)(F)=NC(=O)c2ccc(C(=O)N=S(=O)(Oc3ccc(Cc4ccc(O)cc4)cc3)c3ccc(C)cc3)cc2)cc1 (stereo not shown) [3u (10 mM, 6 h)] the ring closure, isolated yield ([1]; 21-membered ring, 6.0 h) was 94%.

Work on Cc1ccc(S(=O)(F)=NC(=O)c2ccc(-c3ccc(C(=O)N=S(=O)(Oc4ccccc4CNCCCCCCNCc4ccccc4O)c4ccc(C)cc4)cc3)cc2)cc1 (stereo not shown) [3s] yielded a ring closure, isolated yield ([1]; 30-membered ring, 3.0 h) of 80%.

Cc1ccc(S(=O)(F)=NC(=O)c2ccc(C(=O)N=S(=O)(Oc3ccc(OCCOc4ccc(O)cc4)cc3)c3ccc(C)cc3)cc2)cc1 (stereo not shown) [3g] gave a ring closure, isolated yield ([1]; 24-membered ring, 3.0 h) of 79%.

In the case of Cc1ccc(S(=O)(F)=NC(=O)c2cccc(C(=O)N=S(=O)(Oc3ccc(SSc4ccc(O)cc4)cc3)c3ccc(C)cc3)n2)cc1 (stereo not shown) [3r], the ring closure, isolated yield ([1]; 21-membered ring, 3.0 h) was 91%.

Cc1ccc(S(=O)(F)=NC(=O)c2ccc(Oc3ccc(C(=O)N=S(=O)(Oc4ccc(OCCCCOc5ccc(O)cc5)cc4)c4ccc(C)cc4)cc3)cc2)cc1 (stereo not shown) [3m] showed a ring closure, isolated yield ([1]; 31-membered ring, 3.0 h) of 78%.

For Cc1ccc(S(=O)(F)=NC(=O)c2ccc(C(=O)N=S(=O)(Oc3cccc(Oc4cccc(Oc5cccc(O)c5)c4)c3)c3ccc(C)cc3)cc2)cc1 (stereo not shown) [3d], the ring closure, isolated yield ([1]; 23-membered ring, 3.0 h) was 67%.

In the case of Cc1ccc(S(=O)(F)=NC(=O)c2ccc(-c3ccc(C(=O)N=S(=O)(Oc4ccc(C(C)(C)c5cccc(C(C)(C)c6ccc(O)cc6)c5)cc4)c4ccc(C)cc4)cc3)cc2)cc1 (stereo not shown) [3t], the ring closure, isolated yield ([1]; 29-membered ring, 3.0 h) was 90%.

CCC(c1ccc(O)cc1)C(CC)c1ccc(OS(=O)(=NC(=O)c2ccc(Oc3ccc(C(=O)N=S(=O)(F)c4ccc(C)cc4)cc3)cc2)c2ccc(C)cc2)cc1 (stereo not shown) [3j] gave a ring closure, isolated yield ([1]; 27-membered ring, 3.0 h) of 88%.

Cc1ccc(S(=O)(F)=NC(=O)c2ccc(Oc3ccc(C(=O)N=S(=O)(Oc4ccc(SSc5ccc(O)cc5)cc4)c4ccc(C)cc4)cc3)cc2)cc1 (stereo not shown) [3i] showed a ring closure, isolated yield ([1]; 27-membered ring, 3.0 h) of 91%.

Cc1ccc(S(=O)(F)=NC(=O)c2ccc(Oc3ccc(C(=O)N=S(=O)(Oc4cccc(Oc5cccc(Oc6cccc(O)c6)c5)c4)c4ccc(C)cc4)cc3)cc2)cc1 (stereo not shown) [3k] showed a ring closure, isolated yield ([1]; 28-membered ring, 3.0 h) of 88%.

Work on Cc1ccc(S(=O)(F)=NC(=O)c2cccc(C(=O)N=S(=O)(Oc3cccc(Oc4cccc(Oc5cccc(O)c5)c4)c3)c3ccc(C)cc3)c2)cc1 (stereo not shown) [3p] yielded a ring closure, isolated yield ([1]; 22-membered ring, 3.0 h) of 69%.

Compound Cc1ccc(S(=O)(F)=NC(=O)c2ccc(C(=O)N=S(=O)(Oc3ccccc3CNCCCCCCNCc3ccccc3O)c3ccc(C)cc3)cc2)cc1 (stereo not shown) [3e] has a ring closure, isolated yield ([1]; 26-membered ring, 3.0 h) of 91%.

Cc1ccc([S@@](=O)(F)=NC(=O)c2ccc(-c3ccc(C(=O)N=[S@@](=O)(Oc4ccc(C(c5ccc([O-])cc5)(C(F)(F)F)C(F)(F)F)cc4)c4ccc(C)cc4)cc3)cc2)cc1 [[1+1] of 4j (not observed)] showed a ring closure, isolated yield ([2]; 25-membered ring) of 0%.

Work on Cc1ccc([S@](=O)(F)=NC(=O)c2ccc(Oc3ccc(C(=O)N=[S@](=O)(Oc4ccc(C(C)(C)c5ccc([O-])cc5)cc4)c4ccc(C)cc4)cc3)cc2)cc1 [(R,R)-3Ac] yielded a ring closure, isolated yield ([2]; 26-membered ring) of 14%.

Cc1ccc([S@](=O)(F)=NC(=O)c2ccc(Oc3ccc(C(=O)N=[S@](=O)(Oc4ccc(C(C)(C)c5cccc(C(C)(C)c6ccc([O-])cc6)c5)cc4)c4ccc(C)cc4)cc3)cc2)cc1 [(R,R)-3o (diphenyl ether)] gave a ring closure, isolated yield ([2]; 30-membered ring) of 65%.

Work on Cc1ccc(S(=O)(F)=NC(=O)c2ccc(C(=O)N=S(=O)(Oc3ccc(OCCCCCCCCOc4ccc(O)cc4)cc3)c3ccc(C)cc3)cc2)cc1 (stereo not shown) [3h] yielded a ring closure, isolated yield ([1]; 30-membered ring, 3.0 h) of 62%.

Cc1ccc([S@@](=O)(F)=NC(=O)c2ccc(C(=O)N=[S@@](=O)(Oc3ccc(Cc4ccc([O-])cc4)cc3)c3ccc(C)cc3)cc2)cc1 [(S,S)-3u] showed a ring closure, isolated yield ([2]; 21-membered ring) of 54%.

Work on CCC(c1ccc(O)cc1)C(CC)c1ccc(OS(=O)(=NC(=O)c2ccc(C(=O)N=S(=O)(F)c3ccc(C)cc3)cc2)c2ccc(C)cc2)cc1 (stereo not shown) [3b] yielded a ring closure, isolated yield ([1]; 22-membered ring, 3.0 h) of 61%.

With Cc1ccc([S@](=O)(F)=NC(=O)c2ccc(Oc3ccc(C(=O)N=[S@](=O)(Oc4ccc(C(c5ccc([O-])cc5)(C(F)(F)F)C(F)(F)F)cc4)c4ccc(C)cc4)cc3)cc2)cc1 [(R,R)-3Ad] the ring closure, isolated yield ([2]; 26-membered ring) was 12%.

With Cc1ccc([S@](=O)(F)=NC(=O)c2ccc(-c3ccc(C(=O)N=[S@](=O)(Oc4ccc(C(C)(C)c5cccc(C(C)(C)c6ccc([O-])cc6)c5)cc4)c4ccc(C)cc4)cc3)cc2)cc1 [(R,R)-3y] the ring closure, isolated yield ([2]; 29-membered ring) was 27%.

For Cc1ccc([S@@](=O)(F)=NC(=O)c2ccc(-c3ccc(C(=O)N=[S@@](=O)(Oc4ccc(Oc5ccc([O-])cc5)cc4)c4ccc(C)cc4)cc3)cc2)cc1 [[1+1] of 4g (not observed)], the ring closure, isolated yield ([2]; 25-membered ring) was 0%.

In the case of Cc1ccc(S(=O)(F)=NC(=O)c2cccc(C(=O)N=S(=O)(Oc3ccc(OCCOc4ccc(O)cc4)cc3)c3ccc(C)cc3)c2)cc1 (stereo not shown) [3q], the ring closure, isolated yield ([1]; 23-membered ring, 3.0 h) was 64%.

For Cc1ccc([S@](=O)(F)=NC(=O)c2ccc(C(=O)N=[S@](=O)(Oc3ccc(C(C)(C)c4cccc(C(C)(C)c5ccc([O-])cc5)c4)cc3)c3ccc(C)cc3)cc2)cc1 [(R,R)-3c], the ring closure, isolated yield ([2]; 25-membered ring) was 35%.

For Cc1ccc([S@@](=O)(F)=NC(=O)c2ccc(C(=O)N=[S@@](=O)(Oc3cccc(Oc4cccc(Oc5cccc([O-])c5)c4)c3)c3ccc(C)cc3)cc2)cc1 [(S,S)-3d], the ring closure, isolated yield ([2]; 23-membered ring) was 71%.

Cc1ccc([S@](=O)(F)=NC(=O)c2ccc(C(=O)N=[S@](=O)(Oc3ccc(C(C)(C)c4ccc([O-])cc4)cc3)c3ccc(C)cc3)cc2)cc1 [(R,R)-3w] gave a ring closure, isolated yield ([2]; 21-membered ring) of 54%.

With Cc1ccc([S@@](=O)(F)=NC(=O)c2ccc(C(=O)N=[S@@](=O)(Oc3ccccc3CNCCNCc3ccccc3[O-])c3ccc(C)cc3)cc2)cc1 [(S,S)-3f] the ring closure, isolated yield ([2]; 22-membered ring) was 75%.

For Cc1ccc(S(=O)(F)=NC(=O)c2ccc(C(=O)N=S(=O)(Oc3ccc(SSc4ccc(O)cc4)cc3)c3ccc(C)cc3)cc2)cc1 (stereo not shown) [3a], the ring closure, isolated yield ([1]; 22-membered ring, 3.0 h) was 96%.

Cc1ccc([S@@](=O)(F)=NC(=O)c2ccc(Oc3ccc(C(=O)N=[S@@](=O)(Oc4ccc(Oc5ccc([O-])cc5)cc4)c4ccc(C)cc4)cc3)cc2)cc1 [(S,S)-3Ab] showed a ring closure, isolated yield ([2]; 26-membered ring) of 14%.

In the case of Cc1ccc([S@@](=O)(F)=NC(=O)c2ccc(-c3ccc(C(=O)N=[S@@](=O)(Oc4ccc(Cc5ccc([O-])cc5)cc4)c4ccc(C)cc4)cc3)cc2)cc1 [[1+1] of 4f (not observed)], the ring closure, isolated yield ([2]; 25-membered ring) was 0%.

Work on Cc1ccc(S(=O)(F)=NC(=O)c2cccc(C(=O)N=S(=O)(Oc3ccc(C(C)(C)c4cccc(C(C)(C)c5ccc(O)cc5)c4)cc3)c3ccc(C)cc3)c2)cc1 (stereo not shown) [3o (isophthaloyl)] yielded a ring closure, isolated yield ([1]; 24-membered ring, 3.0 h) of 70%.

For Cc1ccc(S(=O)(F)=NC(=O)c2cccc(C(=O)N=S(=O)(Oc3ccc(SSc4ccc(O)cc4)cc3)c3ccc(C)cc3)c2)cc1 (stereo not shown) [3n], the ring closure, isolated yield ([1]; 21-membered ring, 3.0 h) was 72%.

Reference: PMC10660663
